Test results from US10413529B2, “Methods of inhibiting cataracts and presbyopia” (UNIVERSITY OF MASSACHUSETTS, priority 2013, dated 2019).
Like-named read-outs stand apart in the source and are kept apart here.

What was measured:
γD-crystallin = molecular target: T1, γD-crystallin (Homo sapiens, UniProt P07320); assay: Dynamic light scattering (DLS) of γD-crystallin, hydrodynamic radius of monomer and aggregate; type: biochemical; details: γD modified with the agent
T1 construct: 6xHis (N); made in house; host or cells: M15pRep E. coli (pQe1 plasmid from King Labs, MIT)
T1 sequence (P07320 1-174): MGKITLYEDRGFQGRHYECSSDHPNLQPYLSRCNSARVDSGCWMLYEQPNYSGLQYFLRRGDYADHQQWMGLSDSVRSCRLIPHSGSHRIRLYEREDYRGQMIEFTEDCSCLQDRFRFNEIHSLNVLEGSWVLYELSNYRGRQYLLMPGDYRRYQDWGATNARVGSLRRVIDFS
Experimental: (§1) The scattering wave vector is defined as q=4πn sin (θ/2)/λ, where θ is the scattering angle, and λ=514.5, the wavelength of the argon laser in vacuum, and n is 1.33, the refractive index of water. The temperature of the sample was held at constant temperature of 4 to 37±0.1° C. by a circulating water bath. The correlation function was analyzed using CONTIN analysis [NT] times for the correlation functions at measured angles. […] The delay times (τ) were converted to Γ and graphed versus q^2. The slope of the fitted line is the diffusion coefficient (D). […] All solutions were filtered with 0.22 μm hydrophobic PVDF membranes (Fisher Scientific) into 10 mm diameter borosilicate glass tubes and sealed. Solutions were allowed to equilibrate for thirty minutes prior to measuring light scattering. […] The pH and salt concentration were adjusted via overnight dialysis at 4° C. and their final concentration adjusted to 1.0 g/L. […] The scattering wave vector is defined as q=4πn sin (θ/2)/λ, where θ is the scattering angle, and λ=514.5, the wavelength of the argon laser in vacuum, and n is 1.33, the refractive index of water. The temperature of the sample was held at constant temperature of 4 to 37±0.1° C. by a circulating water bath. The correlation function was analyzed using CONTIN analysis [NT] times for the correlation functions at measured angles. […] The delay times (τ) were converted to Γ and graphed versus q^2. The slope of the fitted line is the diffusion coefficient (D). […] All solutions were filtered with 0.22 μm hydrophobic PVDF membranes (Fisher Scientific) into 10 mm diameter borosilicate glass tubes and sealed. Solutions were allowed to equilibrate for thirty minutes prior to measuring light scattering.

human cadaver lenses = tested on: human cadaver lenses; set-up: key to LOCS III grade, Cortical / LOCS III grade, NO / LOCS III grade, PS / LOCS III grade, NC: LOCS III cataract grade on a decimal scale (higher = more severe)
Experimental: Within about 24 hours of death, the eyeball is harvested, sliced and the vitreous is removed. The lens is excised and placed in an incubation medium called Optisol®. Optisol® is a corneal storage medium containing chondroitin sulfate, dextran 40, optisol base powder, sodium bicarbonate, gentamycin, amino acids, sodium pyruvate, L-glutamine, 2-mercaptoethanol and purified water. OD is the right eye and OS is the left eye.
Lens opacities are classified according to the LOCS III system. LOCS III measurements are taken with a slit lamp microscope. The LOCS III contains an expanded set of standards selected from the Longitudinal Study of Cataract slide library at the Center for Clinical Cataract Research, Boston, Mass. It includes six slit lamp images for grading nuclear color (NC) and nuclear opalescence (NO), five retroillumination images for grading cortical cataract (C), and five retroillumination images for grading posterior subcapsular (P) cataract. Cataract severity is graded on a decimal scale, with the standards have regularly spaced intervals on the scale.
In all cases, the control is Optisol® medium. The remaining data points are for isolated human cadaver lenses treated with CAPEG4 solutions with Optisol®.

γS-crystallin = molecular target: T2, γS-crystallin (Homo sapiens, UniProt P22914); assay: Dynamic light scattering (DLS) of γS-crystallin, hydrodynamic radius of monomer and aggregate; type: biochemical; details: γS modified with the agent
T2 construct: 6xHis (N); made in house; host or cells: M15pRep E. coli (pQe1 plasmid from King Labs, MIT)
T2 sequence (P22914 1-178): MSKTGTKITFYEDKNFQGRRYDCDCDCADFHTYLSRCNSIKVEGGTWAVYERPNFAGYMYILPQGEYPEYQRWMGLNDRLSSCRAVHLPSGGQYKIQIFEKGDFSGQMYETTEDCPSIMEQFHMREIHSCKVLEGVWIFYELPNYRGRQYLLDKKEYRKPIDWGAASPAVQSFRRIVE
Experimental: as §1

[1] = fast mode (monomer, first Rh column), 22° C.
[2] = fast mode (monomer, first Rh column), 22° C., listed as CAPEG
[3] = 10 mg/mL CAPEG4 (OD), 0 HR, Table 7
[4] = 10 mg/mL CAPEG4, 24 HR, Table 7
[5] = 10 mg/mL CAPEG4, 72 HR, Table 7
[6] = 50 mg/mL CAPEG4 (OD), 0 HR, Table 8
[7] = 50 mg/mL CAPEG4, 24 HR, Table 8
[8] = 50 mg/mL CAPEG4, 72 HR, Table 8
[9] = 100 mg/mL CAPEG4 (OD), 0 HR, Table 9
[10] = 100 mg/mL CAPEG4 (OD), 0 HR, Table 10 (repeat, different eyes)
[11] = 100 mg/mL CAPEG4, 24 HR, Table 9
[12] = 100 mg/mL CAPEG4, 24 HR, Table 10 (repeat, different eyes)
[13] = 100 mg/mL CAPEG4, 72 HR, Table 9
[14] = 100 mg/mL CAPEG4, 72 HR, Table 10 (repeat, different eyes)
[15] = 200 mg/mL CAPEG4 (OD), 0 HR, Table 11
[16] = 200 mg/mL CAPEG4 (OD), 0 HR, Table 12 (second pair of lenses)
[17] = 200 mg/mL CAPEG4, 24 HR, Table 11
[18] = 200 mg/mL CAPEG4, 24 HR, Table 12 (second pair of lenses)
[19] = 200 mg/mL CAPEG4, 72 HR, Table 11
[20] = 200 mg/mL CAPEG4, 72 HR, Table 12 (second pair of lenses)

NCCOCCOCCOCCOCCC(=O)O [CAPEG4]
Rh (γD-crystallin; fast mode (monomer), 37° C.): 2.8 nm
Rh (γD-crystallin; [1]): 2.9 nm
Rh (γD-crystallin; [2]): 2.8 nm
observation on lens capsule and lens volume (human cadaver lenses): wrinkling of the lens capsule was observed and subjectively exhibited some loss of lens volume
change of LOCS III grades versus control (human cadaver lenses; 10 mg/mL CAPEG4): no significant change in the experimental versus control samples
LOCS III grade, Cortical (human cadaver lenses; [3]): 1.0
LOCS III grade, NC (human cadaver lenses; [3]): 5.0
LOCS III grade, NO (human cadaver lenses; [3]): 5.0
LOCS III grade, PS (human cadaver lenses; [3]): 0.9
LOCS III grade, Cortical (human cadaver lenses; [4]): 1.0
LOCS III grade, NC (human cadaver lenses; [4]): 5.0
LOCS III grade, NO (human cadaver lenses; [4]): 5.0
LOCS III grade, PS (human cadaver lenses; [4]): 0.9
LOCS III grade, Cortical (human cadaver lenses; [5]): 0.9
LOCS III grade, NC (human cadaver lenses; [5]): 5.0
LOCS III grade, NO (human cadaver lenses; [5]): 5.0
LOCS III grade, PS (human cadaver lenses; [5]): 0.9
LOCS III grade, Cortical (human cadaver lenses; [6]): 1.0
LOCS III grade, NC (human cadaver lenses; [6]): 1.7
LOCS III grade, NO (human cadaver lenses; [6]): 2.0
LOCS III grade, PS (human cadaver lenses; [6]): 1.1
LOCS III grade, Cortical (human cadaver lenses; [7]): 1.0
LOCS III grade, NC (human cadaver lenses; [7]): 1.7
LOCS III grade, NO (human cadaver lenses; [7]): 2.0
LOCS III grade, PS (human cadaver lenses; [7]): 0.9
LOCS III grade, Cortical (human cadaver lenses; [8]): 1.0
LOCS III grade, NC (human cadaver lenses; [8]): 1.9
LOCS III grade, NO (human cadaver lenses; [8]): 2.0
LOCS III grade, PS (human cadaver lenses; [8]): 0.9
difference of cortical cataracts and NO versus controls (human cadaver lenses; 50 mg/mL CAPEG4, up to 72 hours): no significant differences between the controls and 50 mg/mL incubation
LOCS III grade, Cortical (human cadaver lenses; [9]): 3.0
LOCS III grade, NC (human cadaver lenses; [9]): 1.3
LOCS III grade, NO (human cadaver lenses; [9]): 1.8
LOCS III grade, PS (human cadaver lenses; [9]): 0.9
LOCS III grade, Cortical (human cadaver lenses; [10]): 3.0
LOCS III grade, NC (human cadaver lenses; [10]): 3.0
LOCS III grade, NO (human cadaver lenses; [10]): 3.0
LOCS III grade, PS (human cadaver lenses; [10]): 1.8
LOCS III grade, Cortical (human cadaver lenses; [11]): 2.9
LOCS III grade, NC (human cadaver lenses; [11]): 1.1
LOCS III grade, NO (human cadaver lenses; [11]): 1.2
LOCS III grade, PS (human cadaver lenses; [11]): 0.9
LOCS III grade, Cortical (human cadaver lenses; [12]): 2.6
LOCS III grade, NC (human cadaver lenses; [12]): 3.0
LOCS III grade, NO (human cadaver lenses; [12]): 3.0
LOCS III grade, PS (human cadaver lenses; [12]): 1.5
LOCS III grade, Cortical (human cadaver lenses; [13]): 2.7
LOCS III grade, NC (human cadaver lenses; [13]): 1.1
LOCS III grade, NO (human cadaver lenses; [13]): 1.2
LOCS III grade, PS (human cadaver lenses; [13]): 0.9
LOCS III grade, Cortical (human cadaver lenses; [14]): 2.0
LOCS III grade, NC (human cadaver lenses; [14]): 3.2
LOCS III grade, NO (human cadaver lenses; [14]): 3.0
LOCS III grade, PS (human cadaver lenses; [14]): 1.0
LOCS III grade, Cortical (human cadaver lenses; [15]): 2.5
LOCS III grade, NC (human cadaver lenses; [15]): 2.4
LOCS III grade, NO (human cadaver lenses; [15]): 2.4
LOCS III grade, PS (human cadaver lenses; [15]): 0
LOCS III grade, Cortical (human cadaver lenses; [16]): 1.3
LOCS III grade, NC (human cadaver lenses; [16]): 2.8
LOCS III grade, NO (human cadaver lenses; [16]): 3.2
LOCS III grade, PS (human cadaver lenses; [16]): 0.9
LOCS III grade, Cortical (human cadaver lenses; [17]): 2.2
LOCS III grade, NC (human cadaver lenses; [17]): 2.4
LOCS III grade, NO (human cadaver lenses; [17]): 2.4
LOCS III grade, PS (human cadaver lenses; [17]): 0
LOCS III grade, Cortical (human cadaver lenses; [18]): 1.0
LOCS III grade, NC (human cadaver lenses; [18]): 2.8
LOCS III grade, NO (human cadaver lenses; [18]): 3.2
LOCS III grade, PS (human cadaver lenses; [18]): 0.9
LOCS III grade, Cortical (human cadaver lenses; [19]): 2.0
LOCS III grade, NC (human cadaver lenses; [19]): 2.4
LOCS III grade, NO (human cadaver lenses; [19]): 2.4
LOCS III grade, PS (human cadaver lenses; [19]): 0
LOCS III grade, Cortical (human cadaver lenses; [20]): 0.9
LOCS III grade, NC (human cadaver lenses; [20]): 2.8
LOCS III grade, NO (human cadaver lenses; [20]): 3.2
LOCS III grade, PS (human cadaver lenses; [20]): 0.9
cause of reduction in cataracts (agent versus pH of medium) (human cadaver lenses; compared with Optisol lowered to the same pH with citric acid): due to the CAPEG4 and not a pH effect of the medium
Rh (γS-crystallin; fast mode (monomer), 37° C.): 3 nm
Rh (γS-crystallin; fast mode (monomer), 37° C., listed as CAPEG): 2.9 nm
Rh (γS-crystallin; [1]): 2.8 nm
Rh (γS-crystallin; [2]): 2.9 nm
